Assays:
MTT cytotoxicity assay [1] = settings: human, MDA-MB-231 cells (human breast adenocarcinoma)
Protocol: (§1) Human lung carcinoma (A549), mouse melanoma (B16), mouse colon carcinoma (CT26), human breast adenocarcinoma (MDA-MB-231), and human glioblastoma (U87MG) cell lines were maintained in Roswell Park Memorial Institute (RPMI)-1640 medium (Fujifilm Wako Pure Chemicals Co., Ltd., Japan) supplemented with 10% heat-inactivated fetal bovine serum (Thermo Fisher Scientific, Inc.) and 1% penicillin/streptomycin (final concentrations: 100 units/mL penicillin G and 10 μg/mL streptomycin; Thermo Fisher Scientific, Inc.). The cells were cultured at 37 °C in a humidified incubator with 5% CO2. For experiments, A549, B16, CT26, MDA-MB-231, and U87MG cells were seeded into 96-well plates at a density of 1000 cells per well. […] Following treatment, 0.5 mg/mL 3-(4,5-dimethylthiazol-2-yl)-2,5-diphenyltetrazolium bromide (MTT; Tokyo Chemical Industry Co., Ltd., Japan) was added to each well, and the plates were incubated for 4 h at 37 °C. After incubation, the medium was carefully removed, and the resulting MTT formazan product was dissolved in 100 μL of dimethyl sulfoxide (DMSO). The absorbance of the solution was measured at 590 nm using a microplate reader. The half-maximal inhibitory concentration (IC50) for each compound was calculated from semilogarithmic dose–response curves.

MTT cytotoxicity assay [2] = settings: human, A549 cells (human lung carcinoma)
Protocol: as §1

MTT cytotoxicity assay [3] = settings: mouse, CT26 cells (mouse colon carcinoma)
Protocol: as §1

MTT cytotoxicity assay [4] = settings: mouse, B16 cells (mouse melanoma)
Protocol: as §1

CT26 cells = assay: Biotin competition cellular uptake assay; format: cell-based, mouse; settings: CT26, biotin 772 μM to 3.09 mM, 24 h
Protocol: Figure 3 (A) Time-course evaluation of cellular uptake for BBC-IP, BBC, and BPA in A549, B16, CT26, MDA-MB-231, and U87MG cells. Compounds were incubated for 2.5, 6, and 24 h in cells, and boron concentration was measured using inductively coupled plasma optical emission spectroscopy (ICP-OES) after ashing with conc. HNO3. Data are shown as the mean ± SEM from a single experiment conducted in triplicate. (B) Biotin concentration-dependent cell uptake study of BBC-IP, BBC and BPA in CT26 cells. Boron concentration was determined after incubation with compounds at various concentrations of biotin for 24 h. (C) Intracellular distribution of BBC-IP in CT26 cells. Cells were incubated with BBC-IP (ca. 25 μg [B]/mL) for 3 h, followed by […] using an anti-closo-dodecaborate antibody and lysosomal staining with Lysotracker. Red: lysosomes stained with LysoTracker Red DND-99; Green: BBC-IP localization; Blue: nuclei stained with DAPI. Scale bars: 25 μm. (D) Intracellular distribution of BPA in CT26 cell lines. Cells were incubated with BPA (ca. 25 μg [B]/mL) for 3 h, followed by fluorescent modification with a boron sensor,[24] nucleus staining with NucleoSeeing and lysosomal staining with a lysotracker. […] The cells were incubated for another 24 h, harvested using a cell scraper, and counted. […]

CT26 tumor-bearing mice = assay: BNCT efficacy in CT26 tumor-bearing mice; format: in vivo, mouse; settings: i.v. 15 mg [10B]/kg, neutron irradiation 3 h later
Protocol: Figure 4 (A–D) Biodistribution of boron in the CT26-bearing mice at 3, 6, and 12 h post- intravenous injection of (A) BBC-IP, (B) BBC, (C) BBC-IP-HSA and (D) BPA at the dose of 15 mg [B]/kg. The data are shown as mean ± SEM (n = 3–4). (E, F) BNCT of the CT26 tumor-bearing mice intravenously injected with 15 mg [^10B]/kg of BBC-IP-HSA and BPA. (E) The tumor volume curves after thermal neutron irradiation (also see Figure S5, Supporting Information). (F) Mice body weight corresponding to the treatments in panel (E). Results are shown as the mean ± SEM (n = 5 for the groups with BBC-IP-HSA, BPA and no treatment, n = 4 for the groups with neutron only). The two-sided Student’s t-test was applied to determine statistical significance, defined as *p < 0.05, **p < 0.0001.
CT26 tumor-bearing mice were prepared by subcutaneously injecting a suspension of CT26 cells (8.0 × 10^5 cells/mouse) into the right thigh. […] The BNCT effects were assessed based on tumor volume changes. Tumor volume was calculated using the formula 0.5 × (A × B^2), where A and B represent the longest and shortest tumor diameters in millimeters, respectively. […]
(B) Body weight of the same mice treated in panel A. (C) The tumor volume curves of the individual mice after irradiation with thermal neutron. […] Significance was determined as: *p < 0.05, **p < 0.0001 using the two-sided […]

MTT cytotoxicity assay [5] = settings: human, U87MG cells (human glioblastoma)
Protocol: as §1

[6] = stated in Introduction without reference; cited from earlier work
[7] = tested on: CT26 (mouse colon carcinoma) cells
Protocol: as §1

[8] = tested on: MDA-MB-231 (human breast adenocarcinoma) cells
Protocol: as §1

[9] = tested on: A549 (human lung carcinoma) cells
Protocol: as §1

[10] = tested on: B16 (mouse melanoma) cells
Protocol: as §1

[11] = tested on: U87MG (human glioblastoma) cells
Protocol: as §1

[12] = biological target: human serum albumin (HSA) (Homo sapiens, UniProt P02768); parameters: method as in PMID 38770220; settings: ELISA, Figure S1; stated as previously reported value; read-out: dissociation constant (Kd) to HSA; cited from earlier work
Chain of human serum albumin (HSA) (P02768 25-609): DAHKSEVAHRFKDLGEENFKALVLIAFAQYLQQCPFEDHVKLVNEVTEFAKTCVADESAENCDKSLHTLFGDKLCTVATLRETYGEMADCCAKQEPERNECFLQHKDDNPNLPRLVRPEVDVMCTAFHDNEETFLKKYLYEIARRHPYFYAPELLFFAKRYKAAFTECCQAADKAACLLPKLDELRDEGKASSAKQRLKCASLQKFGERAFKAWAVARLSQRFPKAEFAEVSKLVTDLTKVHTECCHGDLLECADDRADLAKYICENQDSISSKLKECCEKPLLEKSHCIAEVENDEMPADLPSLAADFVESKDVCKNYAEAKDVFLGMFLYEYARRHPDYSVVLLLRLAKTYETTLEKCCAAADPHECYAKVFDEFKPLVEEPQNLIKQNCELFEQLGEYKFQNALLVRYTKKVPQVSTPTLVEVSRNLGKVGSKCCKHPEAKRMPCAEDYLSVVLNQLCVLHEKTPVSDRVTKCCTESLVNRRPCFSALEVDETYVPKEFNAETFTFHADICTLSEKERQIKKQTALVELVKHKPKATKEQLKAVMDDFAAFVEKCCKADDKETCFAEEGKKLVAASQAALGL

N[C@@H](Cc1ccc(B(O)O)cc1)C(=O)O [BPA, 4-borono-L-phenylalanine, reference compound]
IC50 at 72 h (MTT cytotoxicity assay [1]): > 1000 µM | IC50 at 72 h (MTT cytotoxicity assay [2]): > 1000 µM | IC50 at 72 h (MTT cytotoxicity assay [3]): > 1000 µM | IC50 at 72 h (MTT cytotoxicity assay [4]): 910 ± 130 µM | decrease of accumulation under biotin competitive conditions (up to) (CT26 cells): largely unaffected | antitumor efficacy / tumor growth compared between agents (CT26 tumor-bearing mice; 20-day monitoring): significantly higher antitumor efficacy than BBC-IP-HSA | tumor suppression versus neutron-only group (CT26 tumor-bearing mice; 20 days after irradiation): significantly greater tumor suppression compared to the neutron-only group | IC50 at 72 h (MTT cytotoxicity assay [5]): > 1000 µM

O=C(O)CCCC[C@@H]1SC[C@@H]2NC(=O)N[C@@H]21 [biotin]
water solubility [6]: approximately 0.9 mM

biotin-closo-dodecaborate conjugate [BBC]
IC50 [7]: > 1000 µM | IC50 [8]: > 1000 µM | IC50 [9]: > 1000 µM | decrease of accumulation under biotin competitive conditions (up to) (CT26 cells): ~20% | IC50 [10]: > 1000 µM | IC50 [11]: > 1000 µM

pteroyl-closo-dodecaborate conjugated with a 4-(p-iodophenyl)butyric acid moiety [PBC-IP]
Kd [12]: 11.7 ± 0.8 µM

Source: publication PMC11696430, “A Water-Soluble Small Molecule Boron Carrier Targeting Biotin Receptors for Neutron Capture Therapy” (ACS Omega, 2024)
